Reference: US20240174727A1, “LONG-ACTING NATRIURETIC PEPTIDES AND USES THEREOF” (Eli Lilly and Company, priority 2022, published 2024)
Numbered stars: 1 amine (or outer) side, 2 acyl side, 3 side chain; on linkers, the order of the positions; unused ones are H or OH. Bridge positions count the residues as written; N and C are the ends. Square brackets hold non-standard residues; d marks the D form. * marks the point of attachment. PEG24 = NCCOCCOCCOCCOCCOCCOCCOCCOCCOCCOCCOCCOCCOCCOCCOCCOCCOCCOCCOCCOCCOCCOCCOCCOCCC(=O)O; C20 diacid = O=C(O)CCCCCCCCCCCCCCCCCCC(=O)*; γGlu = O=C(O)[C@H](CCC(=O)[*:2])N[*:1]; 4Pal = N[C@@H](Cc1ccncc1)C(=O)O; CH2 = C([*:1])[*:2]

Experiments:
plasma cGMP = test: In vivo monkey studies, plasma cGMP ELISA; parameters: species or system male cynomolgus monkeys; details: for Net cGMP (nM) Change from Baseline 0.083 h / Net cGMP (nM) Change from Baseline 0.25 h / Net cGMP (nM) Change from Baseline 0.5 h / Net cGMP (nM) Change from Baseline 1 h / Net cGMP (nM) Change from Baseline 2 h / Net cGMP (nM) Change from Baseline 4 h / Net cGMP (nM) Change from Baseline 8 h / Net cGMP (nM) Change from Baseline 12 h / Net cGMP (nM) Change from Baseline 24 h / Net cGMP (nM) Change from Baseline 36 h / Net cGMP (nM) Change from Baseline 48 h / Net cGMP (nM) Change from Baseline 72 h / Net cGMP (nM) Change from Baseline 96 h / Net cGMP (nM) Change from Baseline 120 h / Net cGMP (nM) Change from Baseline 144 h / Net cGMP (nM) Change from Baseline 168 h: dose 100 nmol/kg, monkey plasma; for Net cGMP (nM) Change from Baseline 0.083 h: 0.083 h postdose; for Net cGMP (nM) Change from Baseline 0.25 h: 0.25 h postdose; for Net cGMP (nM) Change from Baseline 0.5 h: 0.5 h postdose; for Net cGMP (nM) Change from Baseline 1 h: 1 h postdose; for Net cGMP (nM) Change from Baseline 2 h: 2 h postdose; for Net cGMP (nM) Change from Baseline 4 h: 4 h postdose; for Net cGMP (nM) Change from Baseline 8 h: 8 h postdose; for Net cGMP (nM) Change from Baseline 12 h: 12 h postdose; for Net cGMP (nM) Change from Baseline 24 h: 24 h postdose; for Net cGMP (nM) Change from Baseline 36 h: 36 h postdose; for Net cGMP (nM) Change from Baseline 48 h: 48 h postdose; for Net cGMP (nM) Change from Baseline 72 h: 72 h postdose; for Net cGMP (nM) Change from Baseline 96 h: 96 h postdose; for Net cGMP (nM) Change from Baseline 120 h: 120 h postdose; for Net cGMP (nM) Change from Baseline 144 h: 144 h postdose; for Net cGMP (nM) Change from Baseline 168 h: 168 h postdose; for net cGMP levels (result in words): monkeys, single SC dose, plasma
In short: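 Plasma cGMP after one subcutaneous dose in male cynomolgus monkeys was determined by competitive ELISA on 1:20-diluted, acetylated samples. Results are net nM changes from each animal's predose baseline.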

[1] = Pharmacokinetics in male Sprague Dawley rats; assay type: in vivo; details: rat, sc, mean, single subcutaneous administration of 200 nMol/kg, plasma; for half-life: read-out: t½ (converted)
In short: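 Male Sprague Dawley rats received a single subcutaneous dose of […], with blood sampled over 120 hours. Intact peptide in K3 EDTA plasma was measured by qualified high-resolution LC/MS after methanol/0.1% formic acid extraction with an analog internal standard; PK parameters from individual plasma concentrations.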

For “{C20 diacid-γGlu}-EKEKEKG[PEG24]S[4Pal]RRSSCFGGRIDRIGHQSGLGCPSFRHGGPSSGAPPPS-NH2 (linker 15-31 via CH2) [Example 61]”, the “Net cGMP (nM) Change from Baseline 0.083 h” value (plasma cGMP) was 4.41 nM, the “Net cGMP (nM) Change from Baseline 0.25 h” value (plasma cGMP) was 24.85 nM and the “Net cGMP (nM) Change from Baseline 0.5 h” value (plasma cGMP) was 27.32 nM. The “Net cGMP (nM) Change from Baseline 1 h” value (plasma cGMP) was 28.35 nM, the “Net cGMP (nM) Change from Baseline 2 h” value (plasma cGMP) was 25.21 nM and the “Net cGMP (nM) Change from Baseline 4 h” value (plasma cGMP) was 28.38 nM. For the same substance, the “Net cGMP (nM) Change from Baseline 8 h” value (plasma cGMP) was 33.73 nM, the “Net cGMP (nM) Change from Baseline 12 h” value (plasma cGMP) was 23.51 nM and the “Net cGMP (nM) Change from Baseline 24 h” value (plasma cGMP) was 27.96 nM. For the same substance, the “Net cGMP (nM) Change from Baseline 36 h” value (plasma cGMP) was 24.75 nM, the “Net cGMP (nM) Change from Baseline 48 h” value (plasma cGMP) was 11.81 nM and the “Net cGMP (nM) Change from Baseline 72 h” value (plasma cGMP) was 14.82 nM. The “Net cGMP (nM) Change from Baseline 96 h” value (plasma cGMP) was 20.25 nM, the “Net cGMP (nM) Change from Baseline 120 h” value (plasma cGMP) was 12.15 nM and the “Net cGMP (nM) Change from Baseline 144 h” value (plasma cGMP) was 18 nM. The “Net cGMP (nM) Change from Baseline 168 h” value (plasma cGMP) was 11.81 nM, the “net cGMP levels (result in words)” value (plasma cGMP) was “increased net cGMP levels” and the CL/F [1] was 1.08 mL/min/kg. For the same substance, the half-life [1] was 6 h.
In the case of “{C20 diacid-γGlu}-EKEKEKGS[4Pal]RRSSCFGGRIGRIGHQSGLGCPSFRHGGPSSGAPPPS-NH2 (disulfide 14-30) [Example 29]”, the “Net cGMP (nM) Change from Baseline 0.083 h” value (plasma cGMP) was 2.13 nM, the “Net cGMP (nM) Change from Baseline 0.25 h” value (plasma cGMP) was 3.52 nM and the “Net cGMP (nM) Change from Baseline 0.5 h” value (plasma cGMP) was 9.03 nM. The “Net cGMP (nM) Change from Baseline 1 h” value (plasma cGMP) was 10.14 nM, the “Net cGMP (nM) Change from Baseline 2 h” value (plasma cGMP) was 15.28 nM and the “Net cGMP (nM) Change from Baseline 4 h” value (plasma cGMP) was 17.75 nM. For the same substance, the “Net cGMP (nM) Change from Baseline 8 h” value (plasma cGMP) was 26.8 nM, the “Net cGMP (nM) Change from Baseline 12 h” value (plasma cGMP) was 28.52 nM and the “Net cGMP (nM) Change from Baseline 24 h” value (plasma cGMP) was 31.75 nM. The “Net cGMP (nM) Change from Baseline 36 h” value (plasma cGMP) was 32.52 nM, the “Net cGMP (nM) Change from Baseline 48 h” value (plasma cGMP) was 21.75 nM and the “Net cGMP (nM) Change from Baseline 72 h” value (plasma cGMP) was 12.46 nM. For the same substance, the “Net cGMP (nM) Change from Baseline 96 h” value (plasma cGMP) was 12.31 nM, the “Net cGMP (nM) Change from Baseline 120 h” value (plasma cGMP) was 8.52 nM and the “Net cGMP (nM) Change from Baseline 144 h” value (plasma cGMP) was 8.28 nM. The “Net cGMP (nM) Change from Baseline 168 h” value (plasma cGMP) was 4.1 nM, the “net cGMP levels (result in words)” value (plasma cGMP) was “increased net cGMP levels” and the CL/F [1] was 0.545 mL/min/kg. It also gave a half-life [1] of 12 h.
